The values that follow come from ChEMBL document CHEMBL2203062 (Bioorg Med Chem Lett, 2012).

The target in experiment [1] is Histone deacetylase. Briefly: Inhibition of HDAC in human Hela cell lysate using Fluor-de-Lys as substrate compound pretreated for 30 mins before substrate addition by fluorescence assay. The format is cell-based.
Experiment [2] concerns the target Histone deacetylase 1 (Homo sapiens, UniProt Q13547). Briefly: Inhibition of HDAC1 using Fluor-de-Lys as substrate compound pretreated for 30 mins before substrate addition by fluorescence assay.
A short description of experiment [3]: Selectivity ratio of IC50 for HDAC3 to IC50 for IC50 for HDAC6.
Experiment [4] has as its target Histone deacetylase 3 (Homo sapiens, UniProt O15379). Briefly: Inhibition of HDAC3 using Fluor-de-Lys as substrate compound pretreated for 30 mins before substrate addition by fluorescence assay.
Experiment [5] concerns the target T1, Protein deacetylase HDAC6 (Homo sapiens, UniProt Q9UBN7).
T1 sequence (Q9UBN7 whole entry): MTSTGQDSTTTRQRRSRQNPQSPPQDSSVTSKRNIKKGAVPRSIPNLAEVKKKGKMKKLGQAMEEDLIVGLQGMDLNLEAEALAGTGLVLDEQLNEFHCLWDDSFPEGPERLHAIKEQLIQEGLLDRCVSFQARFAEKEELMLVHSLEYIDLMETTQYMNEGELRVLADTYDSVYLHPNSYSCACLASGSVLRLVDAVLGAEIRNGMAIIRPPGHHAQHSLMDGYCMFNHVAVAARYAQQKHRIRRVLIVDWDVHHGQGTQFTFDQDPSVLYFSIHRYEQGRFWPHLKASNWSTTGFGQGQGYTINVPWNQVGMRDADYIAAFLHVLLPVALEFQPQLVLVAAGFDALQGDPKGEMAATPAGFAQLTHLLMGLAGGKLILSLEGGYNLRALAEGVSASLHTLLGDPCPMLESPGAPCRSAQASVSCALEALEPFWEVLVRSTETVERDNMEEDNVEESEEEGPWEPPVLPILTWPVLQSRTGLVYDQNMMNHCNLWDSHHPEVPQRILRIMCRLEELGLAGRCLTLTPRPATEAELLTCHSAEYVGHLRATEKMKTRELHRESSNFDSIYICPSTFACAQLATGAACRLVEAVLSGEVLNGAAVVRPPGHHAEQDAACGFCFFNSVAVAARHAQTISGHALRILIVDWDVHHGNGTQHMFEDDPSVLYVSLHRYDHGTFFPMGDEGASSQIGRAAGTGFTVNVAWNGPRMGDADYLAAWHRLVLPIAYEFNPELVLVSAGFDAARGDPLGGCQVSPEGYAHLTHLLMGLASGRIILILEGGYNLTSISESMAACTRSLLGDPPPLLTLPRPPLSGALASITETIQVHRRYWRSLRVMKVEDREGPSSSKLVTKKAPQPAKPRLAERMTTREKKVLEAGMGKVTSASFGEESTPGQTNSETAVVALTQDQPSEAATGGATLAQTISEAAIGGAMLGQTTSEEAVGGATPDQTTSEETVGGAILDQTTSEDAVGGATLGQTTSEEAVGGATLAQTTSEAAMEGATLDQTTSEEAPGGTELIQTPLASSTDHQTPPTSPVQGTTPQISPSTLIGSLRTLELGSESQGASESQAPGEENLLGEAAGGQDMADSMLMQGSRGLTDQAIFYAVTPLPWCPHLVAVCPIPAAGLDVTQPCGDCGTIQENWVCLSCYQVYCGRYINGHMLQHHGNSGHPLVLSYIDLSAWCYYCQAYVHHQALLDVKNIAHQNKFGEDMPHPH
Briefly: Inhibition of HDAC6 using Fluor-de-Lys as substrate compound pretreated for 30 mins before substrate addition by fluorescence assay.

Chain of Histone deacetylase 3 (O15379 whole entry): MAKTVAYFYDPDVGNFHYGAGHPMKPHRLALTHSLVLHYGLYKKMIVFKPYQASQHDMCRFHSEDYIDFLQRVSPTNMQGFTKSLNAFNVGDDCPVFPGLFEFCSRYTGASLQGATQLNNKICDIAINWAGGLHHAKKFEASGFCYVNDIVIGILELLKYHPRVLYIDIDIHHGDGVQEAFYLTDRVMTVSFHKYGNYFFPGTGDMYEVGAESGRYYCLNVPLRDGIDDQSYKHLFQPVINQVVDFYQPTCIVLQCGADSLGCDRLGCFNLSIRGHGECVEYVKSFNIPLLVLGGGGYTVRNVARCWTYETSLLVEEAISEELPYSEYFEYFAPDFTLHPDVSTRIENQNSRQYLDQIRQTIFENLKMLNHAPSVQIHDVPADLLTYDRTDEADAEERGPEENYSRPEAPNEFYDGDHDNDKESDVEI
Chain of Histone deacetylase 1 (Q13547 whole entry): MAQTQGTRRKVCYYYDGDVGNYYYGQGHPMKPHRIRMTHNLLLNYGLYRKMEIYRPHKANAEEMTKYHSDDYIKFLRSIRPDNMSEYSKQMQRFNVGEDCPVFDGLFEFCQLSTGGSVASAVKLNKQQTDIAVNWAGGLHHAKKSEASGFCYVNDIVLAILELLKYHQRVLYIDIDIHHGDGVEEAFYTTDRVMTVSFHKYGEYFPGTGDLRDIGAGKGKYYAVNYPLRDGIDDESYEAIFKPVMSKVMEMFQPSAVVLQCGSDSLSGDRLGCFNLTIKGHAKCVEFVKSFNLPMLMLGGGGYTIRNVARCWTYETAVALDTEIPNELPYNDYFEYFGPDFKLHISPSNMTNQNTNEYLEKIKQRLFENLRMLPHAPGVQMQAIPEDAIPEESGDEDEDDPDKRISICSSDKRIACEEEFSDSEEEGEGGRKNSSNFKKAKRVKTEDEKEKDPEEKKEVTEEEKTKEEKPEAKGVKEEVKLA

Consider `CC(C)(C)C(CCCCC(=O)NO)CC(=O)Nc1ccccc1` (stereo unspecified), for which the IC50 in experiment [1] was determined as 1.94 µM; in experiment [2], 0.99 µM; in experiment [4], 5.4 µM; in experiment [5], 2.4 µM. Moreover, the Ratio IC50 in experiment [3] was 2.
On to `CCC(CCCCC(=O)Nc1ccccc1)CC(=O)NO` (stereo unspecified), for which the Ratio IC50 in experiment [3] turned out to be 12.
